According to patent US20080057136A1, “Disinfecting Composition and Methods of Making and Using Same” (priority 2003, published 2008):
Values after ≈ are worked out from the molar mass of the structure shown. Values belong to the molecule of their own block, whether it stands above or below them.

Experiments:
T. rubrum = experiment: MIC and MBC determination by doubling dilutions (Study 509-102); format: cell-based, Trichophyton rubrum; conditions: Trichophyton rubrum; Study 509-102; Inoculum Counts: 3.6 × 10^8
Excerpt: (§1) Table 2 below indicates the stock dilutions for each test agent, and a breakdown of the resulting concentrations for each of the doubling dilutions performed is summarized in Table 3.
(§2) From the stock dilutions, an initial 1:10 dilution was made (representing tube 1), followed by doubling dilutions (tubes 2-12), as detailed in Table 3.

C. albicans = experiment: as above; format: cell-based; conditions: Candida albicans, Inoculum Counts: 6.6 × 10^5
Excerpt: as §1, §2

C. albicans ATCC 10231 [1] = experiment: NCCLS broth microdilution MIC and MFC (Example 11); format: cell-based, Candida albicans; conditions: for MIC: amphotericin B complete inhibition, terbinafine 50%/90%
T. rubrum ATCC 28188 [2] = experiment: NCCLS broth microdilution MIC and MFC (Example 11); format: cell-based, Trichophyton rubrum; conditions: Example 11; for fungicidal activity: MFC within 1 doubling dilution of the MIC
E. coli (strain 1257) = experiment: Time-kill test, initial studies (death time); format: cell-based, Escherichia coli
Excerpt: (§3) Time-kill tests were used to measure the disinfecting property of test compounds, e.g., microbiocidal or sporicidal compositions, using select bacterial challenge microorganisms such as the vegetative forms of, e.g., E. coli (strain 1257) S. aureus (strain 906), and Bacillus cereus (strain 96).

S. aureus ATCC 25923 = experiment: NCCLS broth microdilution MIC and MBC (Example 10); format: cell-based, Staphylococcus aureus; conditions: Example 10
T. rubrum ATCC 28188 [3] = experiment: NCCLS broth microdilution MIC and MFC (Example 10); format: cell-based, Trichophyton rubrum; conditions: Example 10
P. aeruginosa ATCC 15442 = experiment: NCCLS broth microdilution MIC and MBC (Example 10); format: cell-based, Pseudomonas aeruginosa; conditions: Example 10
[4] = tested on: Staphylococcus aureus (ATCC 25923); experiment: Time-Kill test (Example 9); format: cell-based; conditions: Study 509-101; at 30 seconds
Experimental: A panel of “challenge microorganisms,” including select bacteria, yeast, and fungi was used to assess the disinfecting properties of test compounds, e.g., AMC (DPT Laboratories). Specifically, the disinfectant property of test compounds were tested against Staphylococcus aureus (ATCC 25923); Staphylococcus epidermidis (ATCC 12228); Bacillus subtilis (ATCC 19659); Escherichia coli (ATCC 11229); and Pseudomonas aeruginosa (ATCC 15442) bacteria, as well as the yeast Candida albicans (ATCC 10231), and the fungus Trichophyton rubrum (ATCC 28188). The test procedure incorporated the recommendations described in the “Manual of Clinical Microbiology,” 5th ed., edited by A. B. Balows et al., ASM, Washington, as directed by the Federal Register, June 1994. […]
A single lot of test material was prepared at various concentrations, along with multiple compounds prepared in various concentrations and combinations. […] The plates were then incubated, and the average colony forming units (CFU) recovered per milliliter were determined for each contact time. […]
Bacteria and C. albicans from stock cultures were transferred into trypticase soya broth (TSB) and incubated for 18-24 hours at 37° C.±2° C. […] The microbe concentration was measured using a spectrophotometric technique well-known in the art. […]

[5] = tested on: S. epidermidis ATCC 12228; experiment: NCCLS broth microdilution MIC and MBC (Example 10); format: cell-based, Staphylococcus epidermidis
C. albicans ATCC 10231 [6] = experiment: NCCLS broth microdilution MIC and MFC (Example 10); format: cell-based, Candida albicans
E. coli ATCC 11229 = experiment: NCCLS broth microdilution MIC and MBC (Example 10); format: cell-based, Escherichia coli; conditions: % as g/100 ml or ml/100 ml
S. pyogenes ATCC 19615 = experiment: NCCLS broth microdilution MIC and MBC (Example 10); format: cell-based, Streptococcus pyogenes; conditions: Example 10
S. aureus (strain 906) = experiment: Time-kill test, initial studies (death time); format: cell-based, Staphylococcus aureus
Excerpt: as §3

[7] = MFC within 1 doubling dilution of the MIC
[8] = 80% reduction in growth endpoint
[9] = 80% reduction in growth, amphotericin B complete inhibition

MIC (T. rubrum): 0.25 µg/mL (≈ 0.601 µM)
MIC (C. albicans): 2 µg/mL (≈ 4.81 µM)
SMILES: Clc1ccc(COC(Cn2ccnc2)c2ccc(Cl)cc2Cl)c(Cl)c1 (centres unmarked) [Miconazole]
MBC (T. rubrum): 0.25 µg/mL (≈ 0.601 µM)
MBC (C. albicans): 2 µg/mL (≈ 4.81 µM)

MIC (C. albicans ATCC 10231 [1]; 80% reduction in growth): >0.5 µg/mL
MIC (C. albicans ATCC 10231 [1]; Candida albicans, ATCC10231, 80% reduction in growth, read-out: MIC): > 0.5 µg/mL
MIC (T. rubrum ATCC 28188 [2]; Trichophyton rubrum, ATCC28188, read-out: MIC (μg/ml), read at 50% inhibition of growth, terbinafine, 50% reading): 0.008 µg/mL (≈ 0.0275 µM)
MIC (T. rubrum ATCC 28188 [2]; Trichophyton rubrum, ATCC28188, read-out: MIC (μg/ml), read at 90% inhibition of growth, terbinafine, 90% reading): 0.032 µg/mL (≈ 0.11 µM)
SMILES: CN(C/C=C/C#CC(C)(C)C)Cc1cccc2ccccc12 [Terbinafine]
MFC (C. albicans ATCC 10231 [1]; Candida albicans, ATCC10231, read-out: MFC): > 0.5 µg/mL
fungicidal activity (C. albicans ATCC 10231 [1]; [7]): Fungicidal activity
fungicidal activity (T. rubrum ATCC 28188 [2]): did not demonstrate fungicidal activity
MFC (T. rubrum ATCC 28188 [2]; Trichophyton rubrum, ATCC28188, read-out: MFC): 0.125 µg/mL (≈ 0.429 µM)

SMILES: O=C(O)CN(CCN(CC(=O)O)CC(=O)O)CC(=O)O.[Zn] [ZnEDTA, ethylenediaminotetraacetate zinc complex]
Death time of test-microorganisms (min) E. coli (E. coli (strain 1257); Conc. 0.1 %): >30 min
Death time of test-microorganisms (min) E. coli (E. coli (strain 1257); Conc. 5.0 %): >30 min
MBC (μg/ml) (S. aureus ATCC 25923): (>25000) μg/ml
MBC, % (S. aureus ATCC 25923; % as g/100 ml or ml/100 ml): >2.5%
MIC, % (S. aureus ATCC 25923; % as g/100 ml or ml/100 ml): 1.3%
MIC, % (T. rubrum ATCC 28188 [3]; [8]): 0.08%
MIC (T. rubrum ATCC 28188 [3]; [9]): 800 µg/mL
MFC (T. rubrum ATCC 28188 [3]; 99.9% inhibition of growth): 3000 µg/mL
MFC, % (T. rubrum ATCC 28188 [3]; 99.9% inhibition of growth): 0.3%
fungicidal activity (T. rubrum ATCC 28188 [3]; [7]): did not demonstrate fungicidal activity
MBC (P. aeruginosa ATCC 15442): 80000 µg/mL
MBC, % (P. aeruginosa ATCC 15442; % as g/100 ml or ml/100 ml): 8%
MIC, % (P. aeruginosa ATCC 15442; % as g/100 ml or ml/100 ml): 2%
bactericidal activity (P. aeruginosa ATCC 15442; MBC within one doubling dilution of the MIC): did not meet the definition of bactericidal
MFC (C. albicans ATCC 10231 [1]): 13000 µg/mL
MFC, % (C. albicans ATCC 10231 [1]): 1.3%
MIC, % (C. albicans ATCC 10231 [1]; [8]): 0.08%
MIC (C. albicans ATCC 10231 [1]; 80% reduction in growth): 800 µg/mL
reduction of S. aureus count [4]: ineffective
MCB (μg/ml) [5]: (>25000) μg/ml
MCB, % ([5]; % as g/100 ml or ml/100 ml): >2.5%
MIC, % ([5]; % as g/100 ml or ml/100 ml): 1.3%
MIC, % (C. albicans ATCC 10231 [6]; [8]): 0.15%
MIC (C. albicans ATCC 10231 [6]; [9]): 1500 µg/mL
MFC (C. albicans ATCC 10231 [6]; 99.9% inhibition of growth): 1500 µg/mL
MFC, % (C. albicans ATCC 10231 [6]; 99.9% inhibition of growth): 0.15%
fungicidal activity (C. albicans ATCC 10231 [6]; [7]): Fungal activity
MIC, % (E. coli ATCC 11229): 2%
MFC (T. rubrum ATCC 28188 [2]): 6000 µg/mL
MFC, % (T. rubrum ATCC 28188 [2]): 0.6%
MIC, % (T. rubrum ATCC 28188 [2]; [8]): 0.04%
MIC (T. rubrum ATCC 28188 [2]; [9]): 400 µg/mL
fungicidal activity (T. rubrum ATCC 28188 [2]): did not demonstrate fungicidal activity
MBC (μg/ml) (S. pyogenes ATCC 19615): (13000) μg/ml
MBC, % (S. pyogenes ATCC 19615; % as g/100 ml or ml/100 ml): 1.3%
MIC, % (S. pyogenes ATCC 19615; % as g/100 ml or ml/100 ml): 1.3%
Death time of test-microorganisms (min) S. aureus (S. aureus (strain 906); Conc. 0.1 %): >30 min
Death time of test-microorganisms (min) S. aureus (S. aureus (strain 906); Conc. 5.0 %): >30 min
